# Source: ChEMBL document CHEMBL5257050, “Structure Revisions of Phenolic Bisabolane Sesquiterpenes and a Ferroptosis Inhibitor from the Marine-Derived Fungus Aspergillus versicolor YPH93” (J Nat Prod, 2023)
# Calls of active or inactive are those of the source. The rule behind the calls is not given here.
# Key:
# CCRF-CEM [1] = test: Induction of necrosis in H2O2-induced human CCRF-CEM cells at 10 uM pretreated for 0.5 hrs followed by H2O2 stimulation by Cell-titer-glo assay; assay type: functional, cell-based
# HT-1080 [2] = test: Cytotoxicity against human HT-1080 cells assessed as reduction in cell viability at 50 uM measured for 48 hrs by CCK-8 assay; assay type: functional, cell-based
# CCRF-CEM [3] = test: Anti-necroptosis activity against TNFalpha-induced human CCRF-CEM cells assessed as cell viability at 10 uM pretreated for 0.5 hrs followed by TNFalpha stimulation by Cell-titer-glo assay; assay type: functional, cell-based
# [4] = Antioxidant activity assessed as DPPH radical scavenging activity at 10 uM measured for 30 mins relative to control; assay type: functional
# HT-1080 [5] = test: Anti-ferroptotic activity against erastin-induced ferroptosis in human HT-1080 cells assessed as cell viability at 10 uM pretreated for 0.5 hrs followed by erastin stimulation by Cell-titer-glo assay; assay type: functional; settings: read-out: Activity
# HT-1080 [6] = test: Anti-ferroptotic activity against erastin/RSL3-induced ferroptosis in human HT-1080 cells assessed as cell viability at 1 uM pretreated for 0.5 hrs followed by erastin/RSL3 stimulation by Cell-titer-glo assay; assay type: functional, cell-based
# HT-1080 [7] = test: Anti-ferroptotic activity against erastin/RSL3-induced ferroptosis in human HT-1080 cells assessed as cell viability at 10 uM pretreated for 0.5 hrs followed by erastin/RSL3 stimulation by Cell-titer-glo assay; assay type: functional, cell-based
# HT-1080 [8] = test: Anti-ferroptotic activity against erastin-induced ferroptosis in human HT-1080 cells assessed as cell viability pretreated for 0.5 hrs followed by erastin stimulation by Cell-titer-glo assay; assay type: functional, cell-based
# CCRF-CEM [9] = test: Anti-ferroptotic activity against RSL3-induced ferroptosis in human CCRF-CEM cells assessed as cell viability at 10 uM pretreated for 0.5 hrs followed by RSL3 stimulation by Cell-titer-glo assay; assay type: functional, cell-based
# HT-1080 [10] = test: Anti-ferroptotic activity against RSL3-induced ferroptosis in human HT-1080 cells assessed as cell viability pretreated for 0.5 hrs followed by RSL3 stimulation by Cell-titer-glo assay; assay type: functional, cell-based
EC50 (HT-1080 [8]) [nM],EC50 (HT-1080 [10]) [nM],SMILES,Activity (CCRF-CEM [1]),Activity (HT-1080 [2]),Activity (CCRF-CEM [3]),Activity [4],viability at 10 µM (HT-1080 [5]) [%],Activity (HT-1080 [6]),Activity (HT-1080 [7]),Activity (CCRF-CEM [9])
–,–,CC(=O)OCC(C)(O)CCCC(C)(O)c1ccc(C(=O)O)cc1O (stereo not given),inactive,inactive,inactive,Active,–,–,–,–
–,–,CC(CCCC(C)(O)c1ccc(C(=O)O)cc1O)C(=O)O (stereo not given),inactive,inactive,inactive,Active,–,–,–,–
–,–,CC(O)(CO)CCCC(C)(O)c1ccc(C(=O)O)cc1O (stereo not given),inactive,inactive,inactive,Active,–,–,–,–
–,–,CC(C)(O)CCCC(C)(O)c1ccc(C(=O)O)cc1O (stereo not given),inactive,inactive,inactive,Active,–,–,–,–
–,–,CC1(C)O[C@@](C)(c2ccc(C(=O)O)cc2O)C[C@H](O)[C@H]1O (relative stereo),inactive,inactive,inactive,Active,–,–,–,–
–,–,C[C@]1(CO)CCC[C@](C)(c2ccc(C(=O)O)cc2O)O1,inactive,inactive,inactive,Active,–,–,–,–
–,–,CC(=O)OC[C@@]1(C)CCC[C@@](C)(c2ccc(C(=O)O)cc2O)O1,inactive,inactive,inactive,Active,50,–,–,–
–,–,CC(=O)OC[C@@]1(C)CCC[C@](C)(c2ccc(C(=O)O)cc2O)O1 (relative stereo),inactive,inactive,inactive,Active,–,–,–,–
–,–,Cc1cccc(O)c1-c1cc(O)c(C)c(=O)o1,inactive,inactive,inactive,Active,–,–,–,–
–,–,CC1(C)O[C@@](C)(c2ccc(C(=O)O)cc2O)C[C@H](O)[C@@H]1O (relative stereo),inactive,inactive,inactive,Active,–,–,–,–
–,–,CCOC(=O)c1ccc(NC2CCCCC2)c(N)c1,–,–,–,Active,–,Active,–,–
–,–,C[C@]1(c2ccc(C(=O)O)cc2O)CC[C@H](O)[C@](C)(CO)O1 (relative stereo),inactive,inactive,inactive,Active,–,–,–,–
–,–,C[C@@]1(CO)CCC[C@](C)(c2ccc(C(=O)O)cc2O)O1 (relative stereo),inactive,inactive,inactive,Active,–,–,–,–
3400,2100,C/C(=C\CCC(C)(O)CO)c1ccc(C(=O)O)cc1O (stereo not given),inactive,inactive,inactive,Active,–,–,Active,Active
–,–,C/C(=C/CCC(C)(C)O)c1ccc(C(=O)O)cc1O,inactive,inactive,inactive,Active,–,–,–,–
–,–,CC1(c2ccc(C(=O)O)cc2O)CCC(=O)O1 (stereo not given),inactive,inactive,inactive,Active,–,–,–,–
–,–,CC1(C)CCC[C@](C)(c2ccc(C(=O)O)cc2O)O1,inactive,inactive,inactive,Active,–,–,–,–
–,–,CC1(C)O[C@@](C)(c2ccc(C(=O)O)cc2O)[C@H](O)C[C@@H]1O (relative stereo),inactive,inactive,inactive,Active,–,–,–,–
